Consider 15 compounds from patent publication EP4711366A1, “PYRIMIDO MACROHETEROCYCLIC COMPOUND AS WEE1-YES DUAL-TARGET INHIBITOR AND USE THEREOF” (Mindrank AI Ltd., priority 2023, dated 2024).

For one experiment, the target named is Wee1 kinase (Homo sapiens, UniProt P30291). The experiment in a line: WEE1 protein kinase inhibitory activity assay (ADP-GLO luminescence). Format: biochemical. The following applies: for inhibition of the Weel target (in words): summary statement on the assay results; for IC50: Wee1 10 ng/well, ATP 10 µM, 3 h, 37 °C. Here is the method: The influence of the compound MRANK-106 of the present disclosure on the kinase activity of Weel was assessed using an in vitro kinase reaction system.
Sequence of Wee1 kinase (P30291 whole entry): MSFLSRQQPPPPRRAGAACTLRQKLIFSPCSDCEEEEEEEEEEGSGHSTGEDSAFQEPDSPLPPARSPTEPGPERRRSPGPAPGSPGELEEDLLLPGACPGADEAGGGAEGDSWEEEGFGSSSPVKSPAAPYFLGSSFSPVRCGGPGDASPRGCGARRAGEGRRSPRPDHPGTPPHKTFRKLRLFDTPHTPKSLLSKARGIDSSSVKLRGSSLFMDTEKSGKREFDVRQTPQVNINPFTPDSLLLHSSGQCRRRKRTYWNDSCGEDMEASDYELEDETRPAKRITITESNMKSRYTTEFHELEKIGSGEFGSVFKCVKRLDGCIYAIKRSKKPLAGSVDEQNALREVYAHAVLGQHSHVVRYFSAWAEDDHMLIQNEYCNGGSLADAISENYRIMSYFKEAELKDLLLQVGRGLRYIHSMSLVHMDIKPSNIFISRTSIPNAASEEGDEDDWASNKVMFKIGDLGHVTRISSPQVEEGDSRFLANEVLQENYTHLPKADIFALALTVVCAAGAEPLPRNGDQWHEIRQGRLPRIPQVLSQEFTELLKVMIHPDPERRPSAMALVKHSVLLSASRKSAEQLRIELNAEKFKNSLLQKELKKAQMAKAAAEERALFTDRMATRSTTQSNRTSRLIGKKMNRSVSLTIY
Table 2-1. Information about reagents and consumables
① 1× kinase buffer: A 5× kinase buffer was diluted with ddH2O to make a 1× kinase buffer. Table 2-3. The reagent components added to the 1× kinase buffer
③ 5× enzyme working solution: The optimization of the enzyme concentration had been completed in previous work, and the concentration of the reagent used in the screening is shown in Table 2-4. A 5× enzyme working solution of the enzyme was formulated using the 1× kinase buffer.
④ Compound formulation: A 10 mM mother liquor was formulated using DMSO, aliquoted, and then stored at -20 °C. Immediately before use, the mother liquor was thawed, diluted with DMSO to 1 mM, serially diluted 4-fold to 10 concentration points, and then 40-fold diluted with the 1× kinase buffer to give a 2.5× working solution. Table 2-4. The experimental conditions for the kinase activity assay
After the above reagents were formulated and equilibrated to room temperature, 4 µL of the diluted solution of the compound to be tested and 2 µL of the formulated enzyme solution were added to reaction wells. After shaking and centrifugation, the plate was incubated at room temperature for 15 min, and 4 µL of the ATP solution was then added to start a kinase reaction. After 3 h of reaction at 37 °C, 10 µL of an ADP-GLO reagent was added. After thorough mixing, the mixture was left to react at room temperature for 40 min, and 20 µL of a detection reagent was then added. After 30 min of reaction at room temperature, the luminescence signals were detected using a SpectraMax L instrument. Two independent duplicate assays were performed. The inhibition rate of each well was calculated based on all activity wells and background signal wells, with an average calculated for duplicate wells. Meanwhile, the inhibition rate was plotted using the professional graphing and analysis software PRISM 9.0, and the IC50 was calculated.
The inhibition rates of the compounds to be tested against the kinase activity of Wee1 were calculated using the following formula: Inhibition rate% = (Lumvehicle−Lumcompound)/(Lumvehicle−Lumblank) × 100% [formula] • Lumcompound: the luminescence of the sample treatment groups • Lumvehicle: the luminescence of the solvent control group • Lumblank: the luminescence of the blank group
Background: In ADP-Glo the light output rises with the ADP produced.

For another experiment, the target named is YES1 kinase (Homo sapiens, UniProt P07947). As to the kind of experiment: YES1 protein kinase inhibitory activity assay (HTRF). Format: biochemical. Particulars: for IC50: HTRF, YES1 kinase, ATP 10 µM; for inhibition of the Yes target (in words): summary statement on the assay results. Here is the method:
In this experiment, the capability of the compound MRANK-106 of the present disclosure to inhibit kinase activity was assessed by an HTRF method using a drug screening system based on the YES1 kinase.
Table 3-1. Information about reagents and consumables
The enzymatic activity conditions and HTRF system formulation are shown in Table 3-3; the experimental conditions for the kinase activity assay are shown in Table 3-4. Table 3-3. HTRF system formulation
Table 3-4. The experimental conditions for the kinase activity assay
The test compound MRANK-106 was dissolved in DMSO, and the solution was vortexed and shaken for thorough mixing. The solution was serially diluted 3-fold with DMSO, with the initial concentration being 503 nM.
① A 2× ATP/substrate solution and a 2× kinase solution were formulated using a kinase reaction buffer.
② 50 nL of the compound dilution was transferred to a 384 detection plate using Echo 655. After centrifugation, 2.5 µL of a 2× kinase solution was added to the 384 detection plate. The plate was centrifuged at 1000 rpm for 1 min and incubated at 25 °C for 10 min.
② 2.5 µL of the 2× substrate and ATP solution was added to the 384 detection plate, and the plate was centrifuged at 1000 rpm for 1 min and incubated at 25 °C for 60 min.
④ A 2× XL665 and antibody detection reagent was formulated using a detection buffer.
⑤ 5 µL of a kinase detection reagent was added to the detection plate, and the plate was incubated at 25 °C. The plate was centrifuged at 1000 rpm for 1 min and incubated at 25 °C for 1 h.
⑥ The fluorescence signals at 620 nm (Cryptate) and 665 nm (XL665) were read using a BMG high-throughput drug-screening multi-mode microplate reader.
With the reading of the negative control set as an inhibition rate of 0% and the reading of the positive control set as an inhibition rate of 100%, the inhibition rate of each test solution was calculated using the following formula: [formula] • Datapositive control: the average of the positive control well values • Datanegative control : the average of the negative control well values
The IC50 (half maximal inhibitory concentration) of the compound was obtained using the following nonlinear fitting formulas: Y = Bottom + (Top−Bottom)/(1+10^(∧)((LogIC50−X)*HillSlope)) [formula] • X: the log value of the compound concentration • Y: the inhibition rate (% inh) of the compound
The Z' factor calculation equation: Z′ = 1−3(SDmin+SDmax)/(AVEmax−AVEmin) [formula] where: • Min is the positive control Data value, and Max is the negative control DMSO Data value; • SD stands for standard deviation, and AVE stands for average.
For orientation: Time-resolved FRET reads energy transfer from a long-lived donor to a nearby acceptor.

SMILES strings stand for the structures.

Sequence of YES1 kinase (P07947 whole entry): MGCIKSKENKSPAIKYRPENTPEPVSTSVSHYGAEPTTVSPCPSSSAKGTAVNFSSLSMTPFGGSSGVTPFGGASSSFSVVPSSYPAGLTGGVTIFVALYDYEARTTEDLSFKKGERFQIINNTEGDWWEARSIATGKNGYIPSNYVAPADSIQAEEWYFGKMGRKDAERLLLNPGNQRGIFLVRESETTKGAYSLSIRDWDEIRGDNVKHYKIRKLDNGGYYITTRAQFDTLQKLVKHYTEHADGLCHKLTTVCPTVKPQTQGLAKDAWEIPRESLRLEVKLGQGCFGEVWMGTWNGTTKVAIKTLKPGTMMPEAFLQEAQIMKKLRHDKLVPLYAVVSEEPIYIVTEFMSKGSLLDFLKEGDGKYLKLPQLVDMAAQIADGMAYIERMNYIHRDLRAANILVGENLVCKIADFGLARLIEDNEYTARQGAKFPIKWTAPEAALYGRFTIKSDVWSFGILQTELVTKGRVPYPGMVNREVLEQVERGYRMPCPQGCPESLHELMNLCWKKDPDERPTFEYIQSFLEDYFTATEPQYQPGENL

For the compound `Cc1cc(Nc2ncc3c(=O)n4n(c3n2)-c2cccc(n2)C(C)(O)CCC=CC4)ccc1CN1CCN(C)CC1=O` (stereo not drawn) [Compound 199, (Z)-12-hydroxy-12-methyl-2-((3-methyl-4-((4-methyl-2-oxopiperazin-1-yl)methyl)phenyl)amino)-7,10,11,12-tetrahydro-5H-13,17-(azeno)pyrimido[4',5':3,4]pyrazolo[1,2-a][1,2]diazacyclotridecin-5-one], the “inhibition of the Weel target (in words)” value at Wee1 kinase is given as “strongly inhibited”. Also, on YES1 kinase, 59.1 nM corresponded to half-maximal inhibition (IC50) and the “inhibition of the Yes target (in words)” value is reported as “strongly inhibited”.

Consider `Cc1cc(Nc2ncc3c(=O)n4n(c3n2)-c2cccc(n2)C(C)(O)CCC=CC4)ccc1NC1CC2CCC(C1)N2C` (single isomer, unassigned) [Compound 225A], for which it took 20.4 nM to reach half-maximal inhibition against Wee1 kinase (IC50).

The compound `Cc1cc(Nc2ncc3c(=O)n4n(c3n2)-c2cccc(n2)[C@@](C)(O)CCCCC4)ccc1OC1CCN(C)CC1` [Compound 29, (S)-12-hydroxy-12-methyl-2-((3-methyl-4-((1-methylpiperidin-4-yl)oxy)phenyl)amino)-7,8,9,10,11,12-hexahydro-5H-13,17-(azeno)pyrimido[4',5':3,4]pyrazolo[1,2-a][1,2]diazacyclotridecin-5-one] had an IC50 against Wee1 kinase of 67 nM.

For the compound `CCOP1(=O)CCN(c2ccc(Nc3ncc4c(=O)n5n(c4n3)-c3cccc(n3)C(C)(O)CCC=CC5)cc2)CC1` (stereo not drawn) [Compound 181, (Z)-2-((4-(4-ethoxy-4-oxido-1,4-azaphosphinan-1-yl)phenyl)amino)-12-hydroxy-12-methyl-7,10,11,12-tetrahydro-5H-13,17-(azeno)pyrimido[4',5':3,4]pyrazolo[1,2-a][1,2]diazacyclotridecin-5-one], the IC50 amounted to 33.2 nM on Wee1 kinase and 117 nM against YES1 kinase.

Compound `Cc1cc(Nc2ncc3c(=O)n4n(c3n2)-c2cccc(n2)C(C)(O)CC/C=C\C4)ccc1O[C@H]1CCN(C)C1` (stereo partly drawn) [Compound 186, (R,Z)-12-hydroxy-12-methyl-2-((3-methyl-4-(((S)-1-methylpyrrolidin-3-yl)oxy)phenyl)amino)-7,10,11,12-tetrahydro-5H-13,17-(azeno)pyrimido[4',5':3,4]pyrazolo[1,2-a][1,2]diazacyclotridecin-5-one] had an IC50 at Wee1 kinase of 18.7 nM.

With `CCOP1(=O)CCN(c2ccc(Nc3ncc4c(=O)n5n(c4n3)-c3cccc(n3)C(C)(O)CCC=CC5)cc2F)CC1` (stereo not drawn) [Compound 180, (Z)-2-((4-(4-ethoxy-4-oxido-1,4-azaphosphinan-1-yl)-3-fluorophenyl)amino)-12-hydroxy-12-methyl-7,10,11,12-tetrahydro-5H-13,17-(azeno)pyrimido[4',5':3,4]pyrazolo[1,2-a][1,2]diazacyclotridecin-5-one], the “inhibition of the Weel target (in words)” value on Wee1 kinase is reported as “strongly inhibited”. At YES1 kinase, inhibition was half-maximal at 52.5 nM (IC50) and the “inhibition of the Yes target (in words)” value is given as “strongly inhibited”.

For the compound `CN1CC2CC(Oc3ccc(Nc4ncc5c(=O)n6n(c5n4)-c4cccc(n4)C(C)(O)CCC=CC6)cc3C(F)(F)F)CC2C1` (stereo not drawn) [Compound 223, (Z)-12-hydroxy-12-methyl-2-((4-((2-methyloctahydrocyclopenta[c]pyrrol-5-yl)oxy)-3-(trifluoromethyl)phenyl)amino)-7,10,11,12-tetrahydro-5H-13,17-(azeno)pyrimido[4',5':3,4]pyrazolo[1,2-a][1,2]diazacyclotridecin-5-one], at Wee1 kinase, half-maximal inhibition (IC50) required 18.7 nM and the “inhibition of the Weel target (in words)” value is “strongly inhibited”. At YES1 kinase, half-maximal inhibition (IC50) was put at 21.8 nM and the “inhibition of the Yes target (in words)” value is listed as “strongly inhibited”.

Turning to `CN1CCN(C(=O)c2ccc(Nc3ncc4c(=O)n5n(c4n3)-c3cccc(n3)C(C)(O)CC/C=C\C5)cc2)CC1` [Compound 185, (R,Z)-12-hydroxy-12-methyl-2-((4-(4-methylpiperazine-1-carbonyl)phenyl)amino)-7,10,11,12-tetrahydro-5H-13,17-(azeno)pyrimido[4',5':3,4]pyrazolo[1,2-a][1,2]diazacyclotridecin-5-one], it took 129 nM to reach half-maximal inhibition against YES1 kinase (IC50).

For the compound `Cc1cc(Nc2ncc3c(=O)n4n(c3n2)-c2cccc(n2)C(C)(O)CC/C=C\C4)ccc1CN1CCN(C)CC1` (single isomer, unassigned) [Compound 219A], the IC50 against Wee1 kinase was 13.1 nM.

For the compound `[2H]C([2H])([2H])N1CCC(Oc2ccc(Nc3ncc4c(=O)n5n(c4n3)-c3cccc(n3)[C@@](C)(O)CCC=CC5)cc2C)CC1` (single isomer, unassigned) [Compound 171B], the IC50 against Wee1 kinase is 5.4 nM; against YES1 kinase, 346 nM.

On Wee1 kinase, `Cc1cc(Nc2ncc3c(=O)n4n(c3n2)-c2cccc(n2)C(C)(O)CC/C=C\C4)ccc1OC1CC2CN(C)CC2C1` (single isomer, unassigned) [Compound 224A] came in with an IC50 of 12.8 nM. In other words, the double-digit nanomolar range.

Compound `Cc1cc(Nc2ncc3c(=O)n4n(c3n2)-c2cccc(n2)C(C)(O)CC/C=C\C4)ccc1O[C@@H]1CCN(C)C1` (stereo partly drawn) [Compound 183, (R,Z)-12-hydroxy-12-methyl-2-((3-methyl-4-(((R)-1-methylpyrrolidin-3-yl)oxy)phenyl)amino)-7,10,11,12-tetrahydro-5H-13,17-(azeno)pyrimido[4',5':3,4]pyrazolo[1,2-a][1,2]diazacyclotridecin-5-one] yielded an IC50 against Wee1 kinase of 16.1 nM. The IC50 values of the last two compounds are within 1.5-fold of each other.

In the case of `CN(C)S(=O)(=O)c1ccc2c(c1)/C(=C/c1cc3c([nH]1)CCCC3)C(=O)N2` [SU6656], the 50% inhibitory concentration (IC50) against YES1 kinase amounted to 43 nM.

For the compound `Cc1cc(Nc2ncc3c(=O)n4n(c3n2)-c2cccc(n2)C(C)(O)CCC=CC4)ccc1OC1CCN(CC(F)(F)F)CC1` (stereo not drawn) [Compound 206, (Z)-12-hydroxy-12-methyl-2-((3-methyl-4-((1-(2,2,2-trifluoroethyl)piperidin-4-yl)oxy)phenyl)amino)-7,10,11,12-tetrahydro-5H-13,17-(azeno)pyrimido[4',5':3,4]pyrazolo[1,2-a][1,2]diazacyclotridecin-5-one], the IC50 on YES1 kinase is 130 nM.

For `Cc1cc(Nc2ncc3c(=O)n4n(c3n2)-c2cccc(n2)[C@@](C)(O)CCC=CC4)ccc1OC1CCN(C)CC1` [Compound 134, (S,Z)-12-hydroxy-12-methyl-2-((3-methyl-4-((1-methylpiperidin-4-yl)oxy)phenyl)amino)-7,10,11,12-tetrahydro-5H-13,17-(azeno)pyrimido[4',5':3,4]pyrazolo[1,2-a][1,2]diazacyclotridecin-5-one], on Wee1 kinase, the IC50 turned out to be 21 nM and the “inhibition of the Weel target (in words)” value is “strongly inhibited”. For the same compound, at YES1 kinase, the IC50 was 68.9 nM and the “inhibition of the Yes target (in words)” value was “strongly inhibited”.

One may read the IC50 as the concentration that inhibits the measured activity by half. Lower therefore signals inhibition by little substance.
